In patent US9334286B2, “Pharmacologically active compounds” (Cancer Research Technology Limited, priority 2012, dated 2016):

molecular target: full length MPS1 (Homo sapiens (Human), UniProt P33981); test: Measurement of inhibition of MPS1 kinase (Caliper EZ reader, fluorescent labelled peptide H236); format: biochemical; conditions: full length MPS1 12.5 nM or 3 nM, peptide H236 5 μM, ATP 10 μM, 60 min at room temperature
Protocol: The reaction was carried out for 60 min at room temperature and stopped by the addition of buffer (10 μl) containing 20 mM EDTA, 0.05% (v/v) Brij-35, in 0.1M HEPES-buffered saline (Free acid, Sigma, UK). The plate was read on a Caliper EZ reader II (Caliper Life Sciences).
The reader provides a Software package (‘Reviewer’) which converts the peak heights into % conversion by measuring both product and substrate peak and also allows selection of control well which represent 0% and 100% inhibition respectively. The % inhibition of the compounds is calculated relative to the means of selected control wells. IC50s are determined by testing the compounds at a range of concentrations from 0.25 nM-100 μM. The % inhibitions at each concentration are then fitted to a 4 parameter logistic fit: y=(a+((b−a)/(1+((c/x^d)))) where a=asym min, b=asym max, c=IC50 and d=hill coefficient

full length MPS1, sequence (P33981 whole entry): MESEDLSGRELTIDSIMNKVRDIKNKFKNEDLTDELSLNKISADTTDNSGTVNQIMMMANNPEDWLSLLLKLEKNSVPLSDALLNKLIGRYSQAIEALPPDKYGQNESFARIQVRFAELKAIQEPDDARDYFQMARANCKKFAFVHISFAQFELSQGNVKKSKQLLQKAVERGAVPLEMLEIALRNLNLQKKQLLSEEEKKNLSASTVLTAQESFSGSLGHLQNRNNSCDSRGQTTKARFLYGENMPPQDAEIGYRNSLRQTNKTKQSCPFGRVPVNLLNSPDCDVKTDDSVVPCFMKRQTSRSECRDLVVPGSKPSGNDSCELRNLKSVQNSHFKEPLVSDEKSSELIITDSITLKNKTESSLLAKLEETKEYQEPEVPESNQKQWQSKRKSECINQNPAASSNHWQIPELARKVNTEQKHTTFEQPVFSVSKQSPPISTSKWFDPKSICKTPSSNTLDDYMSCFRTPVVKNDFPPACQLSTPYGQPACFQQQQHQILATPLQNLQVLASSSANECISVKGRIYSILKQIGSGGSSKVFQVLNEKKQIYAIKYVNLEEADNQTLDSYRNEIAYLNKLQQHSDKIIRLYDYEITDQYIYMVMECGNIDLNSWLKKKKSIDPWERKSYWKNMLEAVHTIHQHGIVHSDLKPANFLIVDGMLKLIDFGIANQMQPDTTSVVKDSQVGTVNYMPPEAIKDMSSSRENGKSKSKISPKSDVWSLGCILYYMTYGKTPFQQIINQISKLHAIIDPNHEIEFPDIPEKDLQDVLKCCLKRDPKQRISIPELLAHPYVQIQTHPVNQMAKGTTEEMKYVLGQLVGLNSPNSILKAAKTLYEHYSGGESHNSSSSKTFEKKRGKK

`COc1cc(-c2cnc(C)n2C)ccc1Nc1cc2cc(-c3cnn(CC(C)O)c3)ccc2cn1` (racemic) [Example 38, 1-(4-(3-((4-(1,2-Dimethyl-1H-imidazol-5-yl)-2-methoxyphenyl)amino)isoquinolin-6-yl)-1H-pyrazol-1-yl)propan-2-ol] was tested. Which IC50 did it give?
The IC50 was 2 nM.

How did the IC50 turn out when `COc1cc(-c2cnc(C)n2C)ccc1Nc1cc2cc(-c3cnn(CC4COC(C)(C)O4)c3)ccc2cn1` (racemic) [Example 40, 6-(1-((2,2-Dimethyl-1,3-dioxolan-4-yl)methyl)-1H-pyrazol-4-yl)-N-(4-(1,2-dimethyl-1H-imidazol-5-yl)-2-methoxyphenyl)isoquinolin-3-amine] was run?
Its IC50 is 6 nM.

How did the IC50 turn out when `COc1cc(-c2cnc(C)n2C)ccc1Nc1cc2cc(-c3cnn(C(C)C(C)(C)O)c3)ccc2cn1` (racemic) [Example 68, 3-(4-(3-((4-(1,2-Dimelhyl-1H-imidazol-5-yl)-2-methoxyphenyl)amino)isoquinolin-6-yl)-1H-pyrazol-1-yl)-2-methylbutan-2-ol] was run?
The IC50 was 6 nM.

Which IC50 does the source give for `CCC(O)Cn1cc(-c2ccc3cnc(Nc4ccc(C(=O)N5CC(OC)C5)cc4OC)cc3c2)cn1` (racemic) [Example 71, (4-((6-(1-(2-Hydroxybutyl)-1H-pyrazol-4-yl)isoquinolin-3-yl)amino)-3-methoxyphenyl)(3-methoxyazetidin-1-yl)methanone] here?
The IC50 was 4 nM.

For `COc1cc(C(=O)N2CC(OC)C2)ccc1Nc1cc2cc(-c3cnn(CC(O)C(C)C)c3)ccc2cn1` (racemic) [Example 73, (4-((6-(1-(2-Hydroxy-3-methylbutyl)-1H-pyrazol-4-yl)isoquinolin-3-yl)amino)-3-methoxy-phenyl)(3-methoxyazetidin-1-yl)methanone], which IC50 is on record?
Its IC50 is 4 nM.

`COc1cc(C(=O)N2CC(OC)C2)ccc1Nc1cc2cc(-c3cnn(CC(O)C(F)(F)F)c3)ccc2cn1` (racemic) [Example 75, (3-Methoxy-4-((6-(1-(3,3,3-trifluoro-2-hydroxypropyl)-1H-pyrazol-4-yl)isoquinolin-3-yl)amino)-phenyl)(3-methoxyazetidin-1-yl)methanone] was tested. Which IC50 did it give?
Its IC50 is 3 nM.

Which IC50 does the source give for `COc1cc(C(=O)N2CC(OC)C2)ccc1Nc1cc2cc(-c3cnn(C(C)C(C)(C)O)c3)ccc2cn1` (racemic) [Example 76, (4-((6-(1-(3-Hydroxy-3-methylbutan-2-yl)-1H-pyrazol-4-yl)isoquinolin-3-yl)amino)-3-methoxyphenyl)(3-methoxyazetidin-1-yl)methanone] here?
The IC50 was 5 nM.

How did the IC50 turn out when `COCC(O)Cn1cc(-c2ccc3cnc(Nc4ccc(C(=O)N5CC(OC)C5)cc4OC)cc3c2)cn1` (racemic) [Example 78, (4-((6-(1-(2-Hydroxy-3-methoxypropyl)-1H-pyrazol-4-yl)isoquinolin-3-yl)amino)-3-methoxyphenyl)(3-methoxyazetidin-1-yl)methanone] was run?
The IC50 was 17 nM.

How did the IC50 turn out when `COCC(Cn1cc(-c2ccc3cnc(Nc4ccc(C(=O)N5CC(OC)C5)cc4OC)cc3c2)cn1)OC` (racemic) [Example 79, (4-((6-(1-(2,3-Dimethoxypropyl)-1H-pyrazol-4-yl)isoquinolin-3-yl)amino)-3-methoxyphenyl)(3-methoxyazetidin-1-yl)methanone] was run?
Its IC50 is 9 nM.

With `COc1cc(C(=O)N2CC(OC)C2)ccc1Nc1cc2cc(-c3cnn(CC(O)CO)c3)ccc2cn1` (racemic) [Example 81, (4-((6-(1-(2,3-Dihydroxypropyl)-1H-pyrazol-4-yl)isoquinolin-3-yl)amino)-3-methoxyphenyl)(3-methoxyazetidin-1-yl)methanone] as the compound, how does the IC50 read?
Its IC50 is 3 nM.

How did the IC50 turn out when `COc1cc(C(=O)N2CC(OC)C2)ccc1Nc1cc2cc(-c3cnn(C4COCC4O)c3)ccc2cn1` (racemic) [Example 82, (4-((6-(1-(4-Hydroxytetrahydrofuran-3-yl)-1H-pyrazol-4-yl)isoquinolin-3-yl)amino)-3-methoxyphenyl)(3-methoxyazetidin-1-yl)methanone] was run?
The IC50 was 5 nM.

Which IC50 does the source give for `COc1cc(C(=O)N2CC(OC)C2)ccc1Nc1cc2cc(-c3cnn(C4CCCCC4O)c3)ccc2cn1` (racemic) [Example 85, (4-((6-(1-(2-Hydroxycyclohexyl)-1H-pyrazol-4-yl)isoquinolin-3-yl)amino)-3-methoxyphenyl)(3-methoxyazetidin-1-yl)methanone] here?
Its IC50 is 15 nM.

`COc1cc(-c2cnc(C)n2C)ccc1Nc1cc2cc(-c3cnn(CC(C)O)c3)ccc2cn1` (single isomer, unassigned) [Example 98, 1-(4-(3-((4-(1,2-dimethyl-1H-imidazol-5-yl)-2-methoxyphenyl)amino)isoquinolin-6-yl)-1H-pyrazol-1-yl)propan-2-ol] was tested. Which IC50 did it give?
Its IC50 is 3 nM.

Which IC50 does the source give for `COc1cc(-c2cnc(C)n2C)ccc1Nc1cc2cc(-c3cnn(CC(C)O)c3)ccc2cn1` (single isomer, unassigned) [Example 99, 1-(4-(3-((4-(1,2-dimethyl-1H-imidazol-5-yl)-2-methoxyphenyl)amino)isoquinolin-6-yl)-1H-pyrazol-1-yl)propan-2-ol] here?
Its IC50 is 5 nM.

`COc1cc(-c2cnc(C)n2C)ccc1Nc1cc2cc(-c3cnn(CC4CCOCC4)c3)ccc2cn1` [Example 1, N-(4-(1,2-dimethyl-1H-imidazol-5-yl)-2-methoxyphenyl)-6-(1-((tetrahydro-2H-pyran-4-yl)methyl)-1H-pyrazol-4-yl)isoquinolin-3-amine] was tested. Which IC50 did it give?
Its IC50 is 2 nM.

With `COc1cc(-c2cnc(C)n2C)ccc1Nc1cc2cc(-c3cnn(CC4CC4)c3)ccc2cn1` [Example 2, 6-(1-(Cyclopropylmethyl)-1H-pyrazol-4-yl)-N-(4-(1,2-dimethyl-1H-imidazol-5-yl)-2-methoxyphenyl)isoquinolin-3-amine] as the compound, how does the IC50 read?
Its IC50 is 1 nM.

With `COc1cc(-c2cnc(C)n2C)ccc1Nc1cc2cc(-c3cnn(CC(F)F)c3)ccc2cn1` [Example 3, 6-(1-(2,2-Difluoroethyl)-1H-pyrazol-4-yl)-N-(4-(1,2-dimethyl-1H-imidazol-5-yl)-2-methoxyphenyl)isoquinolin-3-amine] as the compound, how does the IC50 read?
The IC50 was 2 nM.

`COc1cc(-c2cnc(C)n2C)ccc1Nc1cc2cc(-c3cnn(C4CCN(C(=O)OC(C)(C)C)CC4)c3)ccc2cn1` [Example 4, tert-Butyl 4-(4-(3-((4-(1,2-dimethyl-1H-imidazol-5-yl)-2-methoxyphenyl)amino)isoquinolin-6-yl)-1H-pyrazol-1-yl)piperidine-1-carboxylate] was tested. Which IC50 did it give?
The IC50 was 110 nM.

For `COc1cc(-c2cnc(C)n2C)ccc1Nc1cc2cc(-c3cnc(C)n3C)ccc2cn1` [Example 5, 6-(1,2-Dimethyl-1H-imidazol-5-yl)-N-(4-(1,2-dimethyl-1H-imidazol-5-yl)-2-methoxyphenyl)-isoquinolin-3-amine], which IC50 is on record?
The IC50 was 5 nM.

How did the IC50 turn out when `COc1cc(-c2cnc(C)n2C)ccc1Nc1cc2cc(-c3cnco3)ccc2cn1` [Example 6, N-(4-(1,2-dimethyl-1H-imidazol-5-yl)-2-methoxyphenyl)-6-(oxazol-5-yl)isoquinolin-3-amine] was run?
The IC50 was 4 nM.

`COc1cc(-c2cnc(C)n2C)ccc1Nc1cc2cc(-c3ccncc3)ccc2cn1` [Example 7, N-(4-(1,2-dimethyl-1H-imidazol-5-yl)-2-methoxyphenyl)-6-(pyridin-4-yl)isoquinolin-3-amine] was tested. Which IC50 did it give?
The IC50 was 145 nM.

With `COc1cc(-c2cnc(C)n2C)ccc1Nc1cc2cc(-c3ccc(N(C)C)nc3)ccc2cn1` [Example 8, N-(4-(1,2 dimethyl-1H-imidazol-5-yl)-2-methoxyphenyl)-6-(6-(dimethylamino)pyridin-3-yl)isoquinolin-3-amine] as the compound, how does the IC50 read?
The IC50 was 108 nM.

Which IC50 does the source give for `COc1cc(-c2cnc(C)n2C)ccc1Nc1cc2cc(-c3cncs3)ccc2cn1` [Example 9, N-(4-(1,2-dimethyl-1H-imidazol-5-yl)-2-methoxyphenyl)-6-(thiazol-5-yl)isoquinolin-3-amine] here?
Its IC50 is 4 nM.

Which IC50 does the source give for `CCn1cc(-c2ccc3cnc(Nc4ccc(-c5cnc(C)n5C)cc4OC)cc3c2)cn1` [Example 10, N-(4-(1,2-dimethyl-1H-imidazol-5-yl)-2-methoxyphenyl)-6-(1-ethyl-1H-pyrazol-4-yl)isoquinolin-3-amine] here?
Its IC50 is 7 nM.

Which IC50 does the source give for `COc1cc(-c2cnc(C)n2C)ccc1Nc1cc2cc(-c3ccc(C)nc3)ccc2cn1` [Example 11, N-(4-(1,2-dimethyl-1H-imidazol-5-yl)-2-methoxyphenyl)-6-(6-methylpyridin-3-yl)isoquinolin-3-amine] here?
The IC50 was 2 nM.

`COc1cc(-c2cnc(C)n2C)ccc1Nc1cc2cc(-c3ccc(N(C)C(=O)OC(C)(C)C)nc3)ccc2cn1` [Example 12, tert-Butyl (5-(3-((4-(1,2-dimethyl-1H-imidazol-5-yl)-2-methoxyphenyl)amino)isoquinolin-6-yl)pyridin-2-yl)(methyl)carbamate] was tested. Which IC50 did it give?
Its IC50 is 713 nM.

For `COc1cc(-c2cnc(C)n2C)ccc1Nc1cc2cc(-c3sc(C)nc3C)ccc2cn1` [Example 13, N-(4-(1,2-dimethyl-1H-imidazol-5-yl)-2-methoxyphenyl)-6-(2,4-dimethylthiazol-5-yl)isoquinolin-3-amine], which IC50 is on record?
The IC50 was 97 nM.

How did the IC50 turn out when `COCCn1cc(-c2ccc3cnc(Nc4ccc(-c5cnc(C)n5C)cc4OC)cc3c2)cn1` [Example 14, N-(4-(1,2-dimethyl-1H-imidazol-5-yl)-2-methoxyphenyl)-6-(1-(2-methoxyethyl)-1H-pyrazol-4-yl)isoquinolin-3-amine] was run?
Its IC50 is 20 nM.

With `COc1cc(-c2cnc(C)n2C)ccc1Nc1cc2cc(-c3cnn(C(C)C)c3)ccc2cn1` [Example 15, N-(4-(1,2-dimethyl-1H-imidazol-5-yl)-2-methoxyphenyl)-6-(1-isopropyl-1H-pyrazol-4-yl)isoquinolin-3-amine] as the compound, how does the IC50 read?
Its IC50 is 3 nM.

For `COc1cc(-c2cnc(C)n2C)ccc1Nc1cc2cc(-c3cccnc3)ccc2cn1` [Example 16, N-(4-(1,2-dimethyl-1H-imidazol-5-yl)-2-methoxyphenyl)-6-(pyridin-3-yl)isoquinolin-3-amine], which IC50 is on record?
The IC50 was 3 nM.
